Earlier results in patent US6638954B2, “Δ2-1,2,3-TRIAZOLINE ANTICONVULSANTS AND THEIR ACTIVE METABOLITE ANALOGUES, THE AMINOALKYLPYRIDINES, ARE EXCITATORY AMINO ACID ANTAGONISTS AND ANTIISCHEMIC AGENTS, USEFUL IN THE TREATMENT OF CEREBRAL ISCHEMIA RESULTING FROM STROKE” (K and K Biosciences, Inc., priority 2000, dated 2003).

Assays:
amygdala-kindled rats = conditions: non-sedative, non-neurotoxic doses
entorhinal-kindled rats = conditions: non-sedative, non-neurotoxic doses
[1] = test system: N-methyl D-aspartate (NMDA)-induced seizures; conditions: mouse

1-(p-Chlorophenyl)-5-(4-pyridyl)-Δ^2-1,2,3-triazoline [Table IV (2)]
ED50, protection against after-discharge seizures and generalized convulsions (amygdala-kindled rats): 215 ± 61 mg/kg | ED50, protection against after-discharge seizures and generalized convulsions (entorhinal-kindled rats): 423 ± 45 mg/kg | Protection against NMDA-induced seizures/convulsions [1]: complete protection
